{
  "source": "PubChem BioAssay AID653",
  "about": "(University of Pittsburgh Molecular Library Screening Center, 2007)",
  "note": "Activity calls are given as the source filed them. How the calls were made is not given here.",
  "data": [
    {"biological_target": "Genome polyprotein (West Nile virus) (UniProt P06935)", "sequence (P06935 1371-1501 limits assumed)": "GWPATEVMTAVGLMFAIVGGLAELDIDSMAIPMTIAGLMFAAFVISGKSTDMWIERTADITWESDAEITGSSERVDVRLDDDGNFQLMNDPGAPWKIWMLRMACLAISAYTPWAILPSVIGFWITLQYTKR", "sequence (P06935 1502-1679 limits assumed)": "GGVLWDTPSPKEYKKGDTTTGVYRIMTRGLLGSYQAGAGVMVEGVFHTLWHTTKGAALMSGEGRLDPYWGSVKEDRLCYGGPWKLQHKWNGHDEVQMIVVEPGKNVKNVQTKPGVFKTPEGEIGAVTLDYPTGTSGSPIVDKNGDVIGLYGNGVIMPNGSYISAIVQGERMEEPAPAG", "test": "inhibitors of WNV NS2B-NS3 protease, dose response, biochemical, confirmation (AID 653)", "details": "WNV NS2B-NS3 protease enzymatic assay, fluorescence", "values": [
      {"smiles": "COc1ccc(N=CC2=C(O)CCCC2=O)cc1", "IC50": "34.1 µM"},
      {"smiles": "COc1cccc(NC(=O)CSc2nc3n[nH]c(C)c3c(=N)n2-c2cccc(OC)c2)c1", "IC50": "> 50 µM (inactive)"},
      {"smiles": "COc1ccc(OC)c(C2C(C(N)=O)=C(C)Nc3nc(-c4cccc(Cl)c4)nn32)c1", "note": "(stereo not given)", "IC50": "> 50 µM (inactive)"},
      {"smiles": "COC(=O)CSC1=C(C#N)C(c2ccc(C)cc2)C2=C(CCCC2=O)N1", "note": "(stereo not given)", "IC50": "> 50 µM (inactive)"},
      {"smiles": "C/C(CC1(O)C(=O)N(Cc2ccccc2)c2ccccc21)=N\\O", "note": "(stereo not given)", "IC50": "> 50 µM (inactive)"}
    ]}
  ]
}
